How the values were obtained:
Assay type in all cases: biochemical
[1] = molecular target: p110δ/p85α (Homo sapiens, UniProt O00329); assay: Transcreener KINASE Assay, kinase inhibition of p110δ/p85α; conditions: for PI3Kδ IH % @ 1 uM: 1 uM test compound; for IC50: read-out: PI3Kδ IC50
Procedure, shortened: (§1)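 Kinase reactions run 80 min at room temperature, pH buffered with 50 mM HEPES plus 3 mM MgCl2 and 0.03% CHAPS; the PIP2/ATP mix added was 30 uM/10 uM. Generated ADP is then read by FP immunoassay.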

[2] = molecular target: p110γ (Homo sapiens, UniProt P48736); assay: Transcreener KINASE Assay, kinase inhibition of p110γ; conditions: for PI3Kγ IH % @ 1 uM: 1 uM test compound; for IC50: read-out: PI3Kγ IC50
Procedure, shortened: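 Kinase activity is monitored as ADP formation, detected by competitive fluorescence polarization with a far-red tracer. Recombinant isoform complexes react for 80 min at room temperature before a 60 min detection step. IC50 values come from fitted dose-response data.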

[3] = molecular target: p110β/p85α (Homo sapiens, UniProt P42338); assay: Transcreener KINASE Assay, kinase inhibition of p110β/p85α; conditions: for PI3Kβ IH % @ 1 uM: 1 uM test compound; for IC50: read-out: PI3Kβ IC50
Procedure, shortened: as §1

Sequence of p110γ (P48736 whole entry, canonical isoform): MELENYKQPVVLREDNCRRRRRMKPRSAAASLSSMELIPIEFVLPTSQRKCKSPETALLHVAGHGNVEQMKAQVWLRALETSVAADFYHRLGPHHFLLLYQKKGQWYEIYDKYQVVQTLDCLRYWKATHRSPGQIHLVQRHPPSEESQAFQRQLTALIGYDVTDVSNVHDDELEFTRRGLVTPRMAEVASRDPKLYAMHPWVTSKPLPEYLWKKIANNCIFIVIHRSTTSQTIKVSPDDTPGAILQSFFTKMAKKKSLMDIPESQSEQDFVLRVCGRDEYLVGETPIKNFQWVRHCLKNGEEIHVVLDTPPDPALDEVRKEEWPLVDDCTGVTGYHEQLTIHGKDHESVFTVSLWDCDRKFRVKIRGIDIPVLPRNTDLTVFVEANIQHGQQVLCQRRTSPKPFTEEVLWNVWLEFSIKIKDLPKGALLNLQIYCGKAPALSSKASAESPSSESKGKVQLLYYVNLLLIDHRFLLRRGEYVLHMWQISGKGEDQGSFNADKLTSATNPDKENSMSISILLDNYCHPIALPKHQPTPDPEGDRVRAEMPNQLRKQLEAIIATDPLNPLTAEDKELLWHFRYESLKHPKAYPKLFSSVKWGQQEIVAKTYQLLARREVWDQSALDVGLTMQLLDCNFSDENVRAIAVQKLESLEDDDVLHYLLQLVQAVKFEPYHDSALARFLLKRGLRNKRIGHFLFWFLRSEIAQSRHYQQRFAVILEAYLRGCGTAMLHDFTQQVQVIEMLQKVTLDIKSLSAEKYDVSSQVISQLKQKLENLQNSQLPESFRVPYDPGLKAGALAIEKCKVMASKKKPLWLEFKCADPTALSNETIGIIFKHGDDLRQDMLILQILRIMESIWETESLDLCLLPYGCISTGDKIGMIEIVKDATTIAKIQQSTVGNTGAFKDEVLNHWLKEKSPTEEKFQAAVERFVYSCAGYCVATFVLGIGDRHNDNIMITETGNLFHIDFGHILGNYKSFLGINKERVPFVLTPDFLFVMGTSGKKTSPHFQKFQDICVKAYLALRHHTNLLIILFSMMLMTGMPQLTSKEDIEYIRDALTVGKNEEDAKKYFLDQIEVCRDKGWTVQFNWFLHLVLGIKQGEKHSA
Sequence of p110δ/p85α (O00329 whole entry): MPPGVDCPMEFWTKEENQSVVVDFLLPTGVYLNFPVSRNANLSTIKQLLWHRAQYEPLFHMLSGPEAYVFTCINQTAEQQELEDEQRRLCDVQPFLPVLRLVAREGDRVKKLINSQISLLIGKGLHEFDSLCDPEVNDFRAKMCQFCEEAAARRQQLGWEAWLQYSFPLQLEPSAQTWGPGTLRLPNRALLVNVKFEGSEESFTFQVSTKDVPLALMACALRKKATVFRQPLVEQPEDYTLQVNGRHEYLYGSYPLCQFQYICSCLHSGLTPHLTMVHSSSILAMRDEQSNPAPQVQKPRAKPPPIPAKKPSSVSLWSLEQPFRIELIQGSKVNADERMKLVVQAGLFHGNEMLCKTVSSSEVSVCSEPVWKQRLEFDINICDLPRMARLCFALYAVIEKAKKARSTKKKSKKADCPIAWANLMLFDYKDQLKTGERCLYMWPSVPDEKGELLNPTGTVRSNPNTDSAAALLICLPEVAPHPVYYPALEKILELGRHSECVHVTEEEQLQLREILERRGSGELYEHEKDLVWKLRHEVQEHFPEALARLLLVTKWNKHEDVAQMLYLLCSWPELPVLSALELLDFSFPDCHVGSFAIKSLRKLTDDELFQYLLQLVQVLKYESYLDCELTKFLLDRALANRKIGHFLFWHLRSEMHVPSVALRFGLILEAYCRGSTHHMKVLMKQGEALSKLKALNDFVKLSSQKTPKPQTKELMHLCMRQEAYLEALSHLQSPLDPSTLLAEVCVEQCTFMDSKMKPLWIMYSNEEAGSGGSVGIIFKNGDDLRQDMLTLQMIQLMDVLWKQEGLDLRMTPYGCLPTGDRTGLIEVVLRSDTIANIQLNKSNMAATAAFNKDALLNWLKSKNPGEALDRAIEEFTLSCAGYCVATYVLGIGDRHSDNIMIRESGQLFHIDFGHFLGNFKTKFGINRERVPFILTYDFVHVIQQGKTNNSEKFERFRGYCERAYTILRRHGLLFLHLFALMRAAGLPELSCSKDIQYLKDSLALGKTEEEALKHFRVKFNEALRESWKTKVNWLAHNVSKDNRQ
Sequence of p110δ/p85α (P27986 whole entry partner): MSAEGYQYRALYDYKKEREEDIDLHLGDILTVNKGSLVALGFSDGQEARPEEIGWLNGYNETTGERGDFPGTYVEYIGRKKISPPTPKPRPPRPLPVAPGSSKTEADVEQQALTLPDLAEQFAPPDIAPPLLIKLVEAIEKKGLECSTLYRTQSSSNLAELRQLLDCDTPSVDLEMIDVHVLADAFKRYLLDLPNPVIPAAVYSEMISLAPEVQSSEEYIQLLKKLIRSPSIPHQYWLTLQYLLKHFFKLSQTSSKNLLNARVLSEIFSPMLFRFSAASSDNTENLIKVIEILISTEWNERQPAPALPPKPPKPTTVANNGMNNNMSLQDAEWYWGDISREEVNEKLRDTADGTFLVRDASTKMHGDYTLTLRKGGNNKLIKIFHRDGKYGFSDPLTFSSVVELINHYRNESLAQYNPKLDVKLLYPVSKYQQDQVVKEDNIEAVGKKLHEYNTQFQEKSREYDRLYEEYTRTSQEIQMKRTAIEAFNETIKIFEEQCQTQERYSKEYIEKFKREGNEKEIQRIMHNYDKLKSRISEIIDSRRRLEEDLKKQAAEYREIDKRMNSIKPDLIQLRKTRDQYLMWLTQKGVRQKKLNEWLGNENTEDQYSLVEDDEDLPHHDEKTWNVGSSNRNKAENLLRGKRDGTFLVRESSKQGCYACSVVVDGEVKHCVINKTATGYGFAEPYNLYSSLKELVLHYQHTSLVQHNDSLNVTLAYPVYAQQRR
Sequence of p110β/p85α (P42338 whole entry): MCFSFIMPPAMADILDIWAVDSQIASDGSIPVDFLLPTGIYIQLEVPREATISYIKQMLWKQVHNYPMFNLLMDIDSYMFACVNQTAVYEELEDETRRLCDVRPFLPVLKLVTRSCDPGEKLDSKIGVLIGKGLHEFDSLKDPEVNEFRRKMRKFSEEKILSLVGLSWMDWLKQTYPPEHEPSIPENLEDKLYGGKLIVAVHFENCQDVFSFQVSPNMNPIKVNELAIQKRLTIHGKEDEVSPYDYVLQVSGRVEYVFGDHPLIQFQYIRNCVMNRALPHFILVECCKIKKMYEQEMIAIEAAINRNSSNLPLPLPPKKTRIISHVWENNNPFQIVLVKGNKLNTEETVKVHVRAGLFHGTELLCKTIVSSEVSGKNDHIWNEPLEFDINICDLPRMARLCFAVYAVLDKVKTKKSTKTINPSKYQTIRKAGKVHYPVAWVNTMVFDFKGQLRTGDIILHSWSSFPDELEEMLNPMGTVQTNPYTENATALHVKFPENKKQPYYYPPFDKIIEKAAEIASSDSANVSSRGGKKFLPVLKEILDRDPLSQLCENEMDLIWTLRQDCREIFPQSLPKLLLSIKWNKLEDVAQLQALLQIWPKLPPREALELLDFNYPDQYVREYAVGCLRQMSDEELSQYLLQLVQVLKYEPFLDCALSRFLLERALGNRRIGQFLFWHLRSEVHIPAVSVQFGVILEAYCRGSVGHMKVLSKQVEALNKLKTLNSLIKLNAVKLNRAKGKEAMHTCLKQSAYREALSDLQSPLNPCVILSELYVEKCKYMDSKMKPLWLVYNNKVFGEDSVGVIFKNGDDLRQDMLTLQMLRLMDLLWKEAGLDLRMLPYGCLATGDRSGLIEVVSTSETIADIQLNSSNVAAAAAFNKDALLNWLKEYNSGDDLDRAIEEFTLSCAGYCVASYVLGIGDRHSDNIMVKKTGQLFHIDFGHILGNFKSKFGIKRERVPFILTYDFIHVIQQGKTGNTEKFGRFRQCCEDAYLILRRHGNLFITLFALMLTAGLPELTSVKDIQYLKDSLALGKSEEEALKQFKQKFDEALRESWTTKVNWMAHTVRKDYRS
Sequence of p110β/p85α (P27986 2-724 partner): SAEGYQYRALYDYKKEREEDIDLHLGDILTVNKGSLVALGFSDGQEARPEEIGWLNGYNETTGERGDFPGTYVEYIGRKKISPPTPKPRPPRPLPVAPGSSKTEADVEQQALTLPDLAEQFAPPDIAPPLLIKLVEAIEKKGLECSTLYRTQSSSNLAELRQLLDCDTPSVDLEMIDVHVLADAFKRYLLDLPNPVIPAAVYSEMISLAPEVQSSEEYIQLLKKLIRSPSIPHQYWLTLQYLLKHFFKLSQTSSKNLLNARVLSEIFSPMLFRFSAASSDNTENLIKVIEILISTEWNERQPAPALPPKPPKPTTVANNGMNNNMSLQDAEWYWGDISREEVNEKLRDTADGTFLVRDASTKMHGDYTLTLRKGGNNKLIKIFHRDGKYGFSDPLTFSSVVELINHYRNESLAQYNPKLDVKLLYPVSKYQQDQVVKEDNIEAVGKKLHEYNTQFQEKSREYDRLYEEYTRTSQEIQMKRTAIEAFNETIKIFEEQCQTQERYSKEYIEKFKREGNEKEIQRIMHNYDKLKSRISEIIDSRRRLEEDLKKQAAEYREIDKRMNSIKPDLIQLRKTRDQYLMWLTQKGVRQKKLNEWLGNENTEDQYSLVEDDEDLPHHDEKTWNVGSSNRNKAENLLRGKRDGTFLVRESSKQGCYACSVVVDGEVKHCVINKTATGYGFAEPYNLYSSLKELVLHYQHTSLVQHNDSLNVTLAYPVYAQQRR

Row | SMILES | PI3Kδ IH % @ 1 uM [1] [%] | IC50 [1] [µM] | PI3Kγ IH % @ 1 uM [2] [%] | IC50 [2] [µM] | PI3Kβ IH % @ 1 uM [3] [%] | IC50 [3] [µM]
1 | N#Cc1c[nH]c2ncnc(N3C[C@H](F)C[C@H]3c3nn4ccc(Cl)c4c(=O)n3-c3ccccc3)c12 [Compound 48] | 98.4 | 0.004 | 86.1 | 0.058 | 69.7 | 0.501
2 | CS(=O)(=O)c1cccc(-n2c([C@@H]3CCCN3c3ncnc4[nH]cc(C#N)c34)nn3ccc(Cl)c3c2=O)c1 [Compound 192] | 98.5 | 0.004 | >100 | 0.018 | 65.3 | 
3 | N#Cc1cnc(N)nc1N1C[C@@H](F)C[C@H]1c1nn2ccc(Cl)c2c(=O)n1-c1ccccc1 [Compound 229] | 97.6 | 0.003 | 90.4 | 0.002 | 81.5 | 0.262
4 | CC(Nc1ncnc(N)c1C#N)c1cc2ncc(Cl)n2c(=O)n1-c1ccccc1 (stereo not drawn) [Compound 117] | >100 | 0.005 | >100 | 0.043 | >100 | 0.038
5 | Nc1ccc(-c2n[nH]c3ncnc(N4CC[C@H]4c4nn5ccc(Cl)c5c(=O)n4-c4ccccc4)c23)cn1 [Compound 169] | 88.0 | 0.004 | 31.2 |  | −21.1 | 
6 | Nc1ncc(-c2n[nH]c3ncnc(N4CC[C@H]4c4nn5ccc(Cl)c5c(=O)n4-c4ccccc4)c23)cn1 [Compound 171] | 96.6 | 0.005 | 75.3 | 0.13 | 25.2 | 
7 | Nc1nc2c(c(N3CC[C@H]3c3nn4ccc(F)c4c(=O)n3-c3ccccc3)n1)C(=O)CCN2 [Compound 248] | 96.2 | 0.009 | 98.0 | 0.009 | −10.7 | 
8 | O=c1c2c(Cl)ccn2nc([C@@H]2CC(F)(F)CN2c2ncnc3[nH]cnc23)n1Cc1ncccn1 [Compound 161] | 45.7 |  | −8.4 |  | 15.3 | 
9 | CC(Nc1ncnc2[nH]cnc12)c1cn2ccc(-c3cnn(C)c3)c2c(=O)n1-c1ccccc1 (stereo not drawn) [Compound 93, 3-(1-(9H-purin-6-ylamino)ethyl)-8-(1-methyl-1H-pyrazol-4-yl)-2-phenylpyrrolo[1,2-a]pyrazin-1(2H)-one] | 77.6 | 0.244 | 53.7 |  | 5.4 | 
10 | Nc1ncnc(N2CCC[C@H]2c2nn3ccc(Cl)c3c(=O)n2-c2ccccc2)n1 [Compound 138, (S)-2-(1-(4-amino-1,3,5-triazin-2-yl)pyrrolidin-2-yl)-5-chloro-3-phenylpyrrolo[2,1-f][1,2,4]triazin-4(3H)-one] | >100 | 0.012 | 95.0 | 0.075 | 42.3 | 
11 | Nc1ccc(-c2c[nH]c3ncnc(N4CCOC[C@H]4c4nn5ccc(Cl)c5c(=O)n4-c4ccccc4)c23)cn1 [Compound 176] | 97.1 | 0.005 | 58.3 |  | 16.8 | 
12 | O=c1c2c(F)ccn2nc([C@@H]2CCCN2c2ncnc3[nH]cnc23)n1-c1ccccc1 [Compound 190] | 92.0 | 0.003 | 84.1 |  | 52.9 | 
13 | Nc1ncc(Cl)c(N2CC[C@H]2c2nn3ccc(Cl)c3c(=O)n2-c2ccccc2)n1 [Compound 223] | 81.0 | 0.059 | 71.6 |  | 22.9 | 
14 | O=c1c2c(Cl)ccn2nc([C@@H]2CCN2c2ncnc3[nH]cc(F)c23)n1-c1ccccc1 [Compound 148] | 86.7 | 0.044 | 83.0 | 0.173 | 19.5 | 
15 | Nc1nc2c(c(N3CCC[C@H]3c3nn4ccc(Cl)c4c(=O)n3-c3ccccc3)n1)CCC2 [Compound 246] | 84.6 | 0.562 | 80.8 | 0.696 | 2.5 | 
16 | CS(=O)(=O)c1c[nH]c2ncnc(N3CC[C@H]3c3nn4ccc(Cl)c4c(=O)n3-c3ccccc3)c12 [Compound 143] | 88.8 | 0.07 | 82.3 | 0.095 | 63.0 | 
17 | O=c1c2c(CO)ccn2nc([C@@H]2CCCN2c2ncnc3[nH]cnc23)n1-c1ccccc1 [Compound 177, (S)-2-(1-(9H-purin-6-yl)pyrrolidin-2-yl)-5-(hydroxymethyl)-3-phenylpyrrolo[2,1-f][1,2,4]triazin-4(3H)-one] | 97.1 | 0.03 | 79.8 | 0.089 | 17.0 | 
18 | CSc1n[nH]c2ncnc(N3CCC[C@H]3c3nn4ccc(Cl)c4c(=O)n3-c3ccccc3)c12 [Compound 221] | 68.0 |  | 88.6 | 0.024 | 16.3 | 
19 | CC(Nc1ncnc2[nH]cnc12)c1cc2ccc(Cl)n2c(=O)n1-c1ccccc1 (stereo not drawn) [Compound 122, 3-(1-(9H-purin-6-ylamino)ethyl)-7-chloro-2-phenylpyrrolo[1,2-c]pyrimidin-1(2H)-one] | >100 | 0.003 | >100 | 0.008 | 88.3 | 0.051

Further lines, results first:

Row | PI3Kδ IH % @ 1 uM [1] [%] | IC50 [1] [µM] | PI3Kγ IH % @ 1 uM [2] [%] | IC50 [2] [µM] | PI3Kβ IH % @ 1 uM [3] [%] | IC50 [3] [µM] | SMILES
20 | 99.1 | 0.029 | 82.7 | 0.148 | 51.5 |  | CC(=O)c1c(N)ncnc1N1CC[C@H]1c1nn2ccc(Cl)c2c(=O)n1-c1ccccc1 [Compound 300]
21 | >100 | 0.006 | >100 | 0.021 | 49.9 |  | COCCO[C@H]1C[C@@H](c2nn3ccc(Cl)c3c(=O)n2-c2ccccc2)N(c2ncnc3[nH]cnc23)C1 [Compound 266]
22 | 92.6 | 0.043 | 65.7 |  | 32.9 |  | N#Cc1c[nH]c2ncnc(N3CC[C@H]3c3nn4ccc(Cl)c4c(=O)n3C3CCC3)c12 [Compound 375]
23 | 91.8 | 0.078 | >100 |  | 24.0 |  | C[C@H]1CN(c2nc(N)ncc2C#N)[C@@H]1c1nn2ccc(C#N)c2c(=O)n1-c1ccccc1 [Compound 501]
24 | 98.9 | 0.014 | 94.7 | 0.103 | 54.2 |  | O=c1c2c(Cl)ccn2nc([C@@H]2C[S+]([O-])CN2c2ncnc3[nH]cnc23)n1-c1ccccc1 (stereo partly drawn) [Compound 293, 5-chloro-2-((4R)-1-oxido-3-(9H-purin-6-yl)thiazolidin-4-yl)-3-phenylpyrrolo[2,1-f][1,2,4]triazin-4(3H)-one]
25 | 92.1 | 0.038 | 77.1 | 0.272 | 45.2 |  | Cc1cccc(-n2c([C@@H]3CCCN3c3ncnc4[nH]cnc34)nn3ccc(Cl)c3c2=O)n1 [Compound 342]
26 | >100 | 0.02 | 93.9 | 0.048 | 45.4 |  | CC1(C)CN(c2nc(N)ncc2Cl)C1c1nn2ccc(Cl)c2c(=O)n1-c1ccccc1 (stereo not drawn) [Compound 466]
27 | >100 | 0.001 | >100 | 0.007 | 91.9 | 0.266 | N#Cc1c(N)nc(N)nc1N1CCC1c1nn2ccc(Cl)c2c(=O)n1-c1ccccc1 (stereo not drawn) [Compound 482]
28 | 29.1 |  | 55.9 |  | 5.5 |  | N#Cc1cc2nc(N)nc(N3CCC[C@H]3c3nn4ccc(Cl)c4c(=O)n3-c3ccccc3)n2n1 [Compound 320]
29 | 98.0 | 0.001 | >100 | 0.01 | 87.8 | 0.065 | N#Cc1c[nH]c2ncnc(N3CC(=O)C[C@H]3c3nn4ccc(Cl)c4c(=O)n3-c3ccccc3)c12 [Compound 380, (S)-4-(2-(5-chloro-4-oxo-3-phenyl-3,4-dihydropyrrolo[2,1-f][1,2,4]triazin-2-yl)-4-oxopyrrolidin-1-yl)-7H-pyrrolo[2,3-d]pyrimidine-5-carbonitrile]
30 | >100 | 0.005 | 80.6 | 0.138 | 33.0 |  | C[C@H]1CN(c2nc(N)ncc2Cl)[C@@H]1c1nn2ccc(F)c2c(=O)n1-c1ccccc1 [Compound 464]
31 | 99.2 | 0.001 | >100 | 0.005 | 93.2 | 0.021 | N#Cc1c[nH]c2ncnc(N3CCC[C@H]3c3nn4ccc(Cl)c4c(=O)n3-c3ccccn3)c12 [Compound 337, (S)-4-(2-(5-chloro-4-oxo-3-(pyridin-2-yl)-3,4-dihydropyrrolo[2,1-f][1,2,4]triazin-2-yl)pyrrolidin-1-yl)-7H-pyrrolo[2,3-d]pyrimidine-5-carbonitrile]

— US20150307520A1, “NOVEL HETEROARYL AND HETEROCYCLE COMPOUNDS, COMPOSITIONS AND METHODS THEREOF” (HUTCHISON MEDIPHARMA LIMITED, priority 2012, published 2015)
